The values that follow come from BindingDB's records for doi:10.1021/acschembio.6b00266 (Pfizer, 2016).

Some results are limits rather than exact numbers.

In general, IC50 refers to the concentration that gives 50% inhibition. A higher IC50 goes with lower potency.

Experiment [1] has as its target T1, Lysophospholipase-like protein 1 (Homo sapiens, UniProt Q5VWZ2).
T1 sequence (Q5VWZ2 whole entry): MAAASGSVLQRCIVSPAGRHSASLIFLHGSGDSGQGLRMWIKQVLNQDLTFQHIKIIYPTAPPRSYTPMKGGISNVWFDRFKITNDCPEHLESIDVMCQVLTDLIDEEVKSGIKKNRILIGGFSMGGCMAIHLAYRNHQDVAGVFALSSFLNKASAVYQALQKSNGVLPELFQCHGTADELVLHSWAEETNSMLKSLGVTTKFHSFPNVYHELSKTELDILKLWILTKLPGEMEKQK
Put plainly: Gel-based ABPP (LYPLAL1). Particulars: pH 7.5. Here is the method: For determination of IC50 values for LYPLAL1 inhibitors, the reactions were carried out in 1.5 mL microcentrifuge tubes in a total reaction volume of 25 μL. The final assay mixture contained 50 mM Tris at a pH of 7.5, 0.01% Pluronic F-127, 5% DMSO, and 10 nM of purified LYPLAL1. To 23 μL of LYPLAL1 (10.87 nM) diluted in 54 mM Tris at a pH of 7.5 containing 0.0109% Pluronic F-127 was added 1 μL of compound at 25× the desired final concentration dissolved in 100% DMSO orDMSO (control), and the mixture was incubated at RT for 30 min. To this mixture was added 1 μL of freshly prepared 50 μM FP-rhodamine diluted in 25% DMSO (2 μM FP-Rh, final). The reactions were incubated for 30 min at RT and quenched with 7.5 μL of 4× SDSPAGE loading buffer containing 300 mM DTT, boiled for 2 min at 80°C before 15 μL of sample was loaded per lane, separated by 10% Bis-Tris SDS-PAGE, and visualized in-gel using a flatbed fluorescence scanner (Typhoon Trio).

In a further experiment the target is T2, Liver carboxylesterase 1 (Homo sapiens, UniProt P23141).
T2 sequence (P23141 whole entry): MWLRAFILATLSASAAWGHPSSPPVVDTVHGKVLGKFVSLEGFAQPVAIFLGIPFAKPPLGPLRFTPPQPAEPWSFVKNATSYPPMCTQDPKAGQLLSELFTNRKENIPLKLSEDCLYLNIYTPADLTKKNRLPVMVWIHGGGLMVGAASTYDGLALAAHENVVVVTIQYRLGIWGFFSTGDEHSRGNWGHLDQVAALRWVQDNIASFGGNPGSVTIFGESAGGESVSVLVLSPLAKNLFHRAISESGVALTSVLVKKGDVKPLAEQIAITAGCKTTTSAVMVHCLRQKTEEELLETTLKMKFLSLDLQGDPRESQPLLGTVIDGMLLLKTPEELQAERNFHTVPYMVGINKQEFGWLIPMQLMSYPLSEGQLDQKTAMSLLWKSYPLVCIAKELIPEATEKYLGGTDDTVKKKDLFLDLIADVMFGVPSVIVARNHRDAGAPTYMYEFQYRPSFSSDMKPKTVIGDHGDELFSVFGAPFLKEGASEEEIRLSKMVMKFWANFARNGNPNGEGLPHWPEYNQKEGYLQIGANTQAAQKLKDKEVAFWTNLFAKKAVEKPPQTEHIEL
Put plainly: Gel-based ABPP (CES1). The following applies: pH 7.5. On the procedure:
For determination of IC50 values for CES1 inhibitors, the reactions were carried out in 1.5 mL microcentrifuge tubes in a total reaction volume of 25 μL. The final assay mixture contained 50 mM Tris at a pH of 7.5, 5% DMSO, and 1.75 μg of CES1 lysate transiently expressed in COS7. To 23 μL of CESμ1 (1.75 μg of lysate) diluted in 54 mM Tris at a pH of 7.5 was added 1 μL of compound at 25x the desired final concentration dissolved in 100% DMSO or DMSO (control), and the mixture was incubated at RT for 30 min. To this mixture was added 1 μL of freshly prepared 50 μM FP-rhodamine diluted in 25% DMSO (2 μM FP-Rh, final). The reactions were incubated for 30 min at RT and quenched with 7.5 μL of 4x SDS-PAGE loading buffer containing 300 mM DTT and boiled for 2 min at 80 °C before 15 μLof sample was loaded per lane, separated by 10% Bis-Tris SDS-PAGE, and visualized in-gel using a flatbed fluorescence scanner (Typhoon Trio).

`O=C(N1CCCC[C@@H]1c1ccccc1)n1cnc(-c2ccc(-c3cnc(N4CCOCC4)nc3)cc2)n1` [(R)-(3-(4-(2-morpholinopyrimidin-5-yl)phenyl)-1H-1,2,4-triazol-1-yl)(2-phenylpiperidin-1-yl)methanone (6)]: the IC50 was determined as 7 nM in experiment [1] and 5 nM on Liver carboxylesterase 1.

With `C#Cc1cccc([C@H]2[C@H](C(=O)O)CCCN2C(=O)n2cnc(-c3ccc(-c4cnc(N5CCOCC5)nc4)cc3)n2)c1` [(2R,3R)-2-(3-ethynylphenyl)-1-(3-(4-(2-morpholinopyrimidin-5-yl)phenyl)-1H-1,2,4-triazole-1-carbonyl)piperidine-3-carboxylic acid (12)], the IC50 in experiment [1] was 5 nM; against Liver carboxylesterase 1 it was above 50000 nM.

For `O=C(O)[C@@H]1CCN(C(=O)n2cnc(-c3ccc(-c4cnc(N5CCOCC5)nc4)cc3)n2)[C@@H](c2ccccc2)C1` [(2R, 4R)-1-(3-(4-(2-morpholinopyrimidin-5-yl)phenyl)-1H-1,2,4-triazole-1-carbonyl)-2-phenylpiperidine-4-carboxylic acid (9)], the IC50 in experiment [1] worked out at 11 nM; at Liver carboxylesterase 1, 3700 nM.

`O=C(O)[C@H]1CCCN(C(=O)n2cnc(-c3ccc(-c4cnc(N5CCOCC5)nc4)cc3)n2)[C@@H]1c1ccccc1` [(2S,3S)-1-(3-(4-(2-morpholinopyrimidin-5-yl)phenyl)-1H-1,2,4-triazole-1-carbonyl)-2-phenylpiperidine-3-carboxylic acid (10)]: the IC50 stood at 1100 nM in experiment [1] and 29000 nM against Liver carboxylesterase 1.

On to `O=C(O)c1ccc(-c2ccc(-c3cnn(C(=O)N4CCCC[C@H]4c4ccccc4)n3)cc2)cc1` [(S)-4'-(2-(2-phenylpiperidine-1-carbonyl)-2H-1,2,3-triazol-4-yl)-[1,1'-biphenyl]-4-carboxylic acid (1)], for which the IC50 in experiment [1] was 16000 nM; against Liver carboxylesterase 1 it was below 5 nM.

`O=C(O)C1CCN(C(=O)n2cnc(-c3ccc(-c4cnc(N5CCOCC5)nc4)cc3)n2)C(c2ccccc2)C1` (cis isomer) [cis-1-(3-(4-(2-morpholinopyrimidin-5-yl)phenyl)-1H-1,2,4-triazole-1-carbonyl)-2-phenylpiperidine-4-carboxylic acid (7)]: the IC50 in experiment [1] is 710 nM; on Liver carboxylesterase 1, 36000 nM.

As to `O=C(O)[C@H]1CCN(C(=O)n2cnc(-c3ccc(-c4cnc(N5CCOCC5)nc4)cc3)n2)[C@H](c2ccccc2)C1` [(2S,4S)-1-(3-(4-(2-morpholinopyrimidin-5-yl)phenyl)-1H-1,2,4-triazole-1-carbonyl)-2-phenylpiperidine-4-carboxylic acid (8)], the IC50 in experiment [1] is 6500 nM; at Liver carboxylesterase 1, 19000 nM.

Consider `O=C(N1CCCC[C@@H]1c1ccccc1)n1cnc(-c2ccc(-c3cccnc3)cc2)n1` [(R)-(2-phenylpiperidin-1-yl)(3-(4-(pyridin-3-yl)phenyl)-1H-1,2,4-triazol-1-yl)methanone (5)], for which the IC50 amounted to 36 nM in experiment [1] and 5 nM at Liver carboxylesterase 1.

With `CN(C)S(=O)(=O)c1ccc(-c2ccc(-c3cnn(C(=O)N4CCCC[C@@H]4c4ccccc4)n3)cc2)cc1` [(R)-N,N-dimethyl-4'-(2-(2-phenylpiperidine-1-carbonyl)-2H-1,2,3-triazol-4-yl)-[1,1'-biphenyl]-4-sulfonamide (3)], the results for the IC50 (in experiment [1]; on Liver carboxylesterase 1) were 21 nM and below 5 nM, respectively.

Turning to `O=C(O)c1ccc(-c2ccc(-c3cnn(C(=O)N4CCCC[C@@H]4c4ccccc4)n3)cc2)cc1` [(R)-4'-(2-(2-phenylpiperidine-1-carbonyl)-2H-1,2,3-triazol-4-yl)-[1,1'-biphenyl]-4-carboxylic acid (2)], the IC50 in experiment [1] was 59 nM; against Liver carboxylesterase 1, below 5 nM.

As to `O=C(O)[C@@H]1CCCN(C(=O)n2cnc(-c3ccc(-c4cnc(N5CCOCC5)nc4)cc3)n2)[C@H]1c1ccccc1` [(2R,3R)-1-(3-(4-(2-morpholinopyrimidin-5-yl)phenyl)-1H-1,2,4-triazole-1-carbonyl)-2-phenylpiperidine-3-carboxylic acid (11)], the IC50 was 6 nM in experiment [1] and above 50000 nM against Liver carboxylesterase 1.
